Consider 13 compounds from PubChem BioAssay (NCI).

Some test systems named below: OVCAR-3 ovarian; SK-MEL-2 melanoma; HCC-2998 colon; HL-60(TB) leukemia; KM20L2 colon; K-562 leukemia; HT29 colon; LOX IMVI melanoma; SN12C renal; COLO 205 colon; CAKI-1 renal; UO-31 renal; HCT-116 colon; OVCAR-4 ovarian; A549 NSCLC; EKVX NSCLC; HCT-15 colon; A498 renal.
Common to all, as to assay: NCI tumour cell line growth inhibition, 48 h

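Exposure lasted 48 hours, with cells grown in 96-well plates and compounds tested at five concentrations. Definition used: TGI = concentration required for complete inhibition of growth.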 A value given as a limit tells only on which side of the number the result lay.

Regarding `CCOC(=O)Nc1cc2nnc(-c3ccccc3)nc2c(N)n1`, the TGI with OVCAR-3 ovarian is 48.8 µM; with SK-MEL-2 melanoma it was greater than 100 µM; in the assay on HCC-2998 colon it was greater than 100 µM; in the assay on HL-60(TB) leukemia it was 37.5 µM; in the assay with KM20L2 colon it was 20.4 µM; with K-562 leukemia, greater than 100 µM. Moreover, the TGI with HT29 colon is 25.7 µM; in the assay with LOX IMVI melanoma, 30.8 µM; with SN12C renal, greater than 100 µM; in the assay on COLO 205 colon it was 40.5 µM; in the assay on CAKI-1 renal it was greater than 100 µM; in the assay with UO-31 renal it was 84.7 µM. Moreover, the TGI in the assay with HCT-116 colon was 38.7 µM; with OVCAR-4 ovarian, 69.2 µM; with A549 NSCLC, 35.1 µM; in the assay on EKVX NSCLC, greater than 100 µM; in the assay with HCT-15 colon it was greater than 100 µM.

With `CCC(C)n1c(C)nc2c1C(=O)c1ccccc1C2=O` (centres undefined), the TGI in the assay with OVCAR-3 ovarian, with SK-MEL-2 melanoma, in the assay with HCC-2998 colon, with HL-60(TB) leukemia, in the assay on KM20L2 colon and in the assay on K-562 leukemia was greater than 100 µM throughout. Moreover, the TGI in the assay with HT29 colon, with LOX IMVI melanoma, in the assay with SN12C renal, in the assay with COLO 205 colon, in the assay with UO-31 renal and in the assay with HCT-116 colon was greater than 100 µM throughout. The TGI with OVCAR-4 ovarian, in the assay on A549 NSCLC, in the assay with EKVX NSCLC and in the assay on HCT-15 colon was greater than 100 µM throughout.

Take `Cc1cc(N(CCC#N)CCC#N)ccc1/C=C1N=C(/C=C\c2ccccc2)OC\1=O`: the TGI in the assay with OVCAR-3 ovarian, in the assay on SK-MEL-2 melanoma, with A498 renal, in the assay on HCC-2998 colon, with HL-60(TB) leukemia and in the assay on KM20L2 colon was greater than 100 µM each time. Further, the TGI in the assay with K-562 leukemia, in the assay on HT29 colon, with LOX IMVI melanoma, with SN12C renal, in the assay with COLO 205 colon and in the assay on CAKI-1 renal was greater than 100 µM in each case. For the same compound, the TGI in the assay on UO-31 renal, in the assay with HCT-116 colon, with OVCAR-4 ovarian, in the assay on A549 NSCLC, with EKVX NSCLC and with HCT-15 colon was greater than 100 µM throughout.

On to `CCNC(C)Cc1ccccc1` (centres undefined), for which the TGI in the assay with OVCAR-3 ovarian, with SK-MEL-2 melanoma, in the assay on A498 renal, with HCC-2998 colon, in the assay on HL-60(TB) leukemia and in the assay with KM20L2 colon was greater than 100 µM in each case. Moreover, the TGI with K-562 leukemia, in the assay on HT29 colon, in the assay on LOX IMVI melanoma, with SN12C renal, in the assay on COLO 205 colon and in the assay with CAKI-1 renal was greater than 100 µM throughout. For the same compound, the TGI with UO-31 renal, in the assay with HCT-116 colon, in the assay on OVCAR-4 ovarian, in the assay with A549 NSCLC, in the assay on EKVX NSCLC and in the assay on HCT-15 colon was greater than 100 µM throughout.

As to `O=C(Nc1c(O)[nH]c(=S)[nH]c1=O)c1ccccc1F`, the TGI in the assay on OVCAR-3 ovarian, with SK-MEL-2 melanoma, in the assay with A498 renal, with HL-60(TB) leukemia, with KM20L2 colon and in the assay on K-562 leukemia was greater than 100 µM in each case. Moreover, the TGI in the assay with HT29 colon, in the assay on LOX IMVI melanoma, in the assay on SN12C renal, with COLO 205 colon, in the assay on CAKI-1 renal and in the assay with UO-31 renal was greater than 100 µM throughout. Besides, the TGI with HCT-116 colon, in the assay with OVCAR-4 ovarian, in the assay on A549 NSCLC and in the assay with HCT-15 colon was greater than 100 µM in each case.

As for `ON/N=C/c1cc2c(cc1Br)OCO2`, the TGI in the assay with OVCAR-3 ovarian, in the assay on SK-MEL-2 melanoma, with HCC-2998 colon, with HL-60(TB) leukemia, with KM20L2 colon and in the assay on K-562 leukemia was greater than 386 µM in each case. Further, the TGI in the assay on HT29 colon, in the assay with LOX IMVI melanoma, with SN12C renal, in the assay on COLO 205 colon, in the assay with CAKI-1 renal and with HCT-116 colon was greater than 386 µM throughout. Also, the TGI in the assay with A549 NSCLC and with EKVX NSCLC was greater than 386 µM each time.

Turning to `C/C(CN1C(=O)c2ccccc2C1=O)=N\NS(=O)(=O)c1ccc(C)cc1`, the TGI in the assay on OVCAR-3 ovarian, with SK-MEL-2 melanoma, with A498 renal, in the assay with HCC-2998 colon, in the assay on HL-60(TB) leukemia and with KM20L2 colon was greater than 100 µM each time. Further, the TGI in the assay on K-562 leukemia, with HT29 colon, in the assay with SN12C renal, in the assay with COLO 205 colon, in the assay on CAKI-1 renal and in the assay with UO-31 renal was greater than 100 µM throughout. Further, the TGI with HCT-116 colon, with OVCAR-4 ovarian, with A549 NSCLC, in the assay with EKVX NSCLC and with HCT-15 colon was greater than 100 µM throughout.

As to `O=C(/C=C/c1ccc(OCCCOc2ccc(/C=C/C(=O)c3ccccc3)cc2)cc1)c1ccccc1`, the TGI in the assay on OVCAR-3 ovarian, with SK-MEL-2 melanoma, with A498 renal, in the assay with HCC-2998 colon, with HL-60(TB) leukemia and with KM20L2 colon was greater than 100 µM each time. The TGI with K-562 leukemia, with HT29 colon, in the assay on LOX IMVI melanoma, in the assay with SN12C renal, with COLO 205 colon and in the assay on UO-31 renal was greater than 100 µM throughout. The TGI with HCT-116 colon, in the assay with OVCAR-4 ovarian, in the assay with A549 NSCLC, in the assay on EKVX NSCLC and in the assay on HCT-15 colon was greater than 100 µM in each case.

Turning to `Cc1ccc(S(=O)(=O)c2c(N)c3nc4ccccc4n3c3nc4ccccc4nc23)cc1`, the TGI with OVCAR-3 ovarian, in the assay on SK-MEL-2 melanoma, in the assay on HCC-2998 colon, with KM20L2 colon, in the assay with K-562 leukemia and with HT29 colon was greater than 100 µM in each case. The TGI in the assay on LOX IMVI melanoma, with SN12C renal, with COLO 205 colon, in the assay with CAKI-1 renal, in the assay with UO-31 renal and with HCT-116 colon was greater than 100 µM each time. The TGI in the assay with OVCAR-4 ovarian, with A549 NSCLC, in the assay on EKVX NSCLC and in the assay with HCT-15 colon was greater than 100 µM in each case.

With `CN(C)CCOc1cccc2c1C(=O)c1ccccc1C2=O`, the TGI with OVCAR-3 ovarian came to 64 µM; in the assay on SK-MEL-2 melanoma, 31.4 µM; with A498 renal it was 33.3 µM; with HCC-2998 colon it was 30.3 µM; in the assay with HL-60(TB) leukemia, 29.4 µM; in the assay on KM20L2 colon it was 46.8 µM. The TGI is 33.7 µM in the assay on K-562 leukemia; 28.7 µM in the assay on HT29 colon; 18.6 µM in the assay on LOX IMVI melanoma; 37.3 µM in the assay with SN12C renal; 16.1 µM in the assay on COLO 205 colon; 43.8 µM in the assay with CAKI-1 renal. Also, the TGI came out at 45.2 µM with UO-31 renal; 17.2 µM with HCT-116 colon; 20.4 µM in the assay on OVCAR-4 ovarian; 45.4 µM in the assay with A549 NSCLC; 34.6 µM with EKVX NSCLC; 27.3 µM in the assay with HCT-15 colon.

As to `CCc1ccc(N=Cc2cc(OC)c(OC)c(OC)c2)cc1`, the TGI with OVCAR-3 ovarian was greater than 100 µM; with SK-MEL-2 melanoma, greater than 100 µM; in the assay on A498 renal, greater than 100 µM; in the assay with HL-60(TB) leukemia, greater than 100 µM; with KM20L2 colon, greater than 100 µM; with K-562 leukemia it was 73.3 µM. In addition, the TGI in the assay with HT29 colon, with LOX IMVI melanoma, in the assay on SN12C renal, in the assay with COLO 205 colon, in the assay on CAKI-1 renal and in the assay on UO-31 renal was greater than 100 µM each time. For the same compound, the TGI in the assay with HCT-116 colon, in the assay on OVCAR-4 ovarian, with A549 NSCLC, in the assay on EKVX NSCLC and with HCT-15 colon was greater than 100 µM in each case.

Turning to `CC(=O)OC12/C(=N/O)CCCCCC1c1ccccc12` (centres undefined), the TGI in the assay on SK-MEL-2 melanoma, in the assay on HL-60(TB) leukemia, with KM20L2 colon, in the assay on K-562 leukemia, with HT29 colon and with LOX IMVI melanoma was greater than 100 µM in each case. The TGI in the assay with SN12C renal, in the assay on COLO 205 colon, in the assay with UO-31 renal, in the assay on HCT-116 colon, in the assay with OVCAR-4 ovarian and in the assay with A549 NSCLC was greater than 100 µM each time. Moreover, the TGI with EKVX NSCLC and with HCT-15 colon was greater than 100 µM throughout.

For `Cc1cn(Cc2ccccc2CCO)c(=S)[nH]c1=O`, the TGI with OVCAR-3 ovarian, in the assay with SK-MEL-2 melanoma, in the assay with A498 renal, with HL-60(TB) leukemia, in the assay with KM20L2 colon and in the assay with K-562 leukemia was greater than 100 µM each time. For the same compound, the TGI in the assay on HT29 colon, in the assay on LOX IMVI melanoma, in the assay with SN12C renal, with COLO 205 colon, in the assay on CAKI-1 renal and with UO-31 renal was greater than 100 µM throughout. Further, the TGI with OVCAR-4 ovarian, in the assay with A549 NSCLC, in the assay on EKVX NSCLC and in the assay on HCT-15 colon was greater than 100 µM in each case.
